# Assay results taken from patent US6410249B1, “Odorant receptors” (priority 1999, dated 2002).
# Legend:
# receptor 5.24 [1] = molecular target: T1, receptor 5.24 (Carassius auratus, UniProt Q9PW88); test: IP3 accumulation in receptor 5.24-expressing HEK 293 cells; format: cell-based, goldfish; conditions: varying concentrations
# T1 construct: The receptor 5.24 full length cDNA detects 1-2 bands in genomic DNA blots; expressed in transfected cells; host or cells: HEK 293 cells expressing SV40 large T antigen (293-TSA)
# T1 sequence (Q9PW88 25-877): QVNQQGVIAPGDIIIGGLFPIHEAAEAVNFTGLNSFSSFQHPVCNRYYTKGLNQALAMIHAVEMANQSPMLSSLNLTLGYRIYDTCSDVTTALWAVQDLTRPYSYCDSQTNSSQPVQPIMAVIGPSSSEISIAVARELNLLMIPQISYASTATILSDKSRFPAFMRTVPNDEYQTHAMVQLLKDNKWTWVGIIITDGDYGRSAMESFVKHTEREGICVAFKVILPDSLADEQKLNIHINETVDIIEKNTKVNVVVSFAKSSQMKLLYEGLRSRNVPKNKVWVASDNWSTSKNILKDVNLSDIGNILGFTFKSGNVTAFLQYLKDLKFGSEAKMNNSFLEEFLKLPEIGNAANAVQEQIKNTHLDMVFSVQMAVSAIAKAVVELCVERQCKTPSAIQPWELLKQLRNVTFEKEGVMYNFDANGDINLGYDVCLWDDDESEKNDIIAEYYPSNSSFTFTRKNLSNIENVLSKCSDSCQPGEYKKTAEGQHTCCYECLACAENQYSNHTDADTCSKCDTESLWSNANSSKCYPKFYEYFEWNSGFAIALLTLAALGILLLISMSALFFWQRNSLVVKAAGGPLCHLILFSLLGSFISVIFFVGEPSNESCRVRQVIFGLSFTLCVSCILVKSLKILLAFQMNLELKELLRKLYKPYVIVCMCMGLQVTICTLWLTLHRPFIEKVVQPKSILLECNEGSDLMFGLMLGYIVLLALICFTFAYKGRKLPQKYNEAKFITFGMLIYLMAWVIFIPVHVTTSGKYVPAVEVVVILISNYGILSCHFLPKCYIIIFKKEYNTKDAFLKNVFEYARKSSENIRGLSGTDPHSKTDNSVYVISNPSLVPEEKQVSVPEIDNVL
# Text: High-Affinity Binding of Radiolabeled L-Arginine to the Cloned Goldfish Odorant Receptor. To determine the affinity of the cloned goldfish amino acid receptor for basic amino acids, we characterized the ligand-receptor interaction by radiolabeled ligand binding to receptors expressed in mammalian cells. Human embryonic kidney (HEK) 293 cells were transfected with expression plasmids containing the receptor 5.24 cDNA insert. […] We next wished to determine what second messenger pathway receptor 5.24 couples to in HEK 293 cells. Control cells or cells expressing receptor 5.24 were exposed to varying concentrations of arginine and assayed for the accumulation of IP3 and cAMP.
# IP3 and cAMP Measurements. For measurements of IP3 and cAMP, cell lines 5.24-20 and 2.2-9 (negative control) were plated at densities of 3.5×10^5 cells/well in 24 well plates and incubated overnight in DMEM containing 10% FBS. All subsequent manipulations prior to reaction termination were performed at 37° C. in 5% CO2. […] IP3 levels were determined by a radioreceptor competition assay (Dupont NEN). For cAMP measurements, after the 3 hour amino acid-free preincubation cells were washed once with PBS, preincubated for 15 min in PBS containing 0.5 mM IBMX, and exposed to odorants in 400 μl PBS/0.5 mM IBMX for 30 min. cAMP levels were determined by radioimmunoassay (DuPont NEN).
# receptor 5.24 [2] = molecular target: T1, receptor 5.24; test: biochemical; format: binding
# Description: Structure-Activity Properties of Compounds Interacting with the Cloned Goldfish Amino Acid Odorant Receptor. An understanding of how odorant receptors are used to encode olfactory information requires a characterization of the odorant specificities of individual receptor types. We therefore wished to determine the relative specificity of receptor 5.24 for structurally related ligands. […] Briefly, 3H-arginine binding to membranes from receptor 5.24-expressing HEK 293 cells was assayed in the absence or presence of varying concentrations of competitor ligands.
# Mammalian Cell Culture and DNA Transfections. For cell transfections, the receptor 5.24 cDNA insert was subcloned into two expression vectors: CMVI, which utilizes a human cytomegalovirus (CMV) immediate early promoter-enhancer plus the CMV intron A sequence to drive expression, and 608RX-2.2L, which is similar to CMVI except the cDNA insert is followed by an internal ribosome entry site (IRES)—enhanced green fluorescent protein (EGFP) coding sequence; 608RX-2.2L also contains a puromycin resistance gene. For transient assays, HEK 293 cells expressing the SV40 large T antigen (293 TSA cells) were transfected with the CMVI-receptor 5.24 or CMVI control plasmid using lipofectamine (Life Technologies) and harvested at 48 hours for membrane preparations. For stable cell lines, 293-TSA cells were transfected with the 608RX-2.2L-receptor 5.24 plasmid or a control 608RX-2.2L plasmid and selected in puromycin. Colonies showing high levels of EGFP fluorescence (as judged by epifluorescence microscopy) were picked, expanded, and screened for 3H-L-arginine binding (see below).
# Membrane Preparations and Ligand Binding Assays. Membranes for ligand binding assays were prepared by washing confluent cells three times with phosphate buffered saline (PBS), detaching cells with a PBS-based enzyme-free dissociation solution, and resuspending cells in ice-cold 5.0 mM Hepes, pH 7.4, 1.0 mM EDTA, 1.0 μg/ml leupeptin, 0.5 mM PMSF. All subsequent manipulations were performed on ice. After a 30 min incubation, the cell suspension was homogenized and centrifuged at 100,000×g for 30 min. Cell membrane pellets were washed twice by resuspension and centrifugation in binding buffer (20 mM Hepes, pH 7.4, 1.0 mM EDTA, 2.0 mM MgCl2, 1.0 μg/ml leupeptin, 0.5 mM PMSF), resuspended in binding buffer, and frozen at −80° C.
# Saturation binding assays were performed using 20-25 μg of membrane protein in a final volume of 100 μl binding buffer and increasing concentrations of [2,3-3H] L-arginine (specific activity=40 Ci/mmol; Dupont NEN). Non-specific binding was measured in the presence of 500 μM unlabeled L-arginine. Competition assays were performed with 500 nM [2,3-3H] L-arginine and increasing concentrations of competitor ligands. All incubations were performed at 4° C. for 60 min and terminated by rapid filtration through Whatman GF/C filters pretreated with ice cold 0.1% polyethyleneimine. Filters were washed three times with 4.0 ml ice cold 20 mM Hepes, pH 7.4, and retained radioactivity was measured by scintillation counting.
# [3] = test system: goldfish olfactory neurons; test: multi-unit recordings from the goldfish olfactory epithelium; format: cell-based; conditions: 100 μM
smiles,measurement,setting,value
N=C(N)NCCC[C@H](N)C(=O)O [L-Arginine],"IP3 accumulation, in words",receptor 5.24 [1],specific increase in IP3
same,Ki,receptor 5.24 [2],80 nM
same,"binding to receptor 5.24, in words",receptor 5.24 [2]; comparative binding studies,highest affinities
same,locations with spontaneous activity that responded,[3],25 out of 28
